“Also recorded” adds a separate entry of the source.
Legend:
hTLR2 receptor = target: T1, hTLR2 receptor (Homo sapiens, UniProt O60603); experiment: HEK-Blue hTLR2 cell response test (SEAP reporter activity); format: cell-based
T1 construct: host or cells: HEK-Blue hTLR2 (HEK293-derived, SEAP reporter)
Description: (§1) The cell lines, in particular HEK-Blue™ (InvivoGen), are lines modified by stable transfection with a vector encoding an innate immunity receptor, in particular human (h) receptors. They are also cotransfected with the reporter gene, in particular a reporter gene producing SEAP, the synthesis of which is under the direct control of the signaling pathway associated with the receptor overexpressed. Preferably, this reporter gene encodes a colored or fluorescent protein or a protein of which the activity can be measured with or without substrate. […] The use of these lines makes it possible to target certain families of molecules of microbial origin according to the receptor expressed. Preferably, cell lines expressing either hTLR2 or hTLR4 or hNOD2 are used. In addition, a control line which expresses no innate immunity receptor is also used.
(§2) For the tests according to the present invention, four lines are preferably used: • HEK-Blue™ hTLR2 line: this line expressing the hTLR2 receptor responds specifically to TLR2 agonists (PGNs and lipopeptides especially). […]
(§3) The dose-response curves are produced with standard agonist molecules: LPS, PGN, LTA, zymosan and MDP. The Raw-Blue™ and HEK-Blue™ TLR2, TLR4, NOD2 and Null lines are incubated with increasing concentrations of agonists, and the cell response is measured by quantifying the SEAP activity (FIGS. 1-5). […]

Raw-Blue™ line = experiment: Raw-Blue cell inflammatory response test (SEAP reporter activity); format: cell-based, mouse
Description: The Raw-Blue™ line is a line of mouse macrophages transfected with a reporter gene producing a secreted form of alkaline phosphatase (SEAP: secreted embryonic alkaline phosphatase), the transcription of which is under the direct control of the inflammatory signaling pathways. The advantage of this line is that it naturally expresses virtually all the innate immunity receptors, including the TLR2, TLR4 and NOD2 receptors. Thus, these cells will respond to the majority of inflammatory contaminants, and the response will be monitored by measuring the enzymatic activity of the SEAP produced. Preferably, this line is used in the test at a cell density of approximately 0.5×10^6 cells/well. The bringing of the preparation of glucose polymers or of hydrolysates thereof into contact with the cells lasts approximately 16 to 24 h.
The dose-response curves are produced with standard agonist molecules: LPS, PGN, LTA, zymosan and MDP. The Raw-Blue™ and HEK-Blue™ TLR2, TLR4, NOD2 and Null lines are incubated with increasing concentrations of agonists, and the cell response is measured by quantifying the SEAP activity (FIGS. 1-5).
For the cell tests, the samples are diluted to 1/10 in the cell culture medium (final concentration: 3.2% (w/v)). […]

hTLR4 receptor = target: T2, hTLR4 receptor (Homo sapiens, UniProt O00206+Q9Y6Y9); experiment: HEK-Blue hTLR4 cell response test (SEAP reporter activity); format: cell-based
T2 construct: host or cells: HEK-Blue hTLR4 (HEK293-derived, SEAP reporter)
T2 sequence (O00206 24-839): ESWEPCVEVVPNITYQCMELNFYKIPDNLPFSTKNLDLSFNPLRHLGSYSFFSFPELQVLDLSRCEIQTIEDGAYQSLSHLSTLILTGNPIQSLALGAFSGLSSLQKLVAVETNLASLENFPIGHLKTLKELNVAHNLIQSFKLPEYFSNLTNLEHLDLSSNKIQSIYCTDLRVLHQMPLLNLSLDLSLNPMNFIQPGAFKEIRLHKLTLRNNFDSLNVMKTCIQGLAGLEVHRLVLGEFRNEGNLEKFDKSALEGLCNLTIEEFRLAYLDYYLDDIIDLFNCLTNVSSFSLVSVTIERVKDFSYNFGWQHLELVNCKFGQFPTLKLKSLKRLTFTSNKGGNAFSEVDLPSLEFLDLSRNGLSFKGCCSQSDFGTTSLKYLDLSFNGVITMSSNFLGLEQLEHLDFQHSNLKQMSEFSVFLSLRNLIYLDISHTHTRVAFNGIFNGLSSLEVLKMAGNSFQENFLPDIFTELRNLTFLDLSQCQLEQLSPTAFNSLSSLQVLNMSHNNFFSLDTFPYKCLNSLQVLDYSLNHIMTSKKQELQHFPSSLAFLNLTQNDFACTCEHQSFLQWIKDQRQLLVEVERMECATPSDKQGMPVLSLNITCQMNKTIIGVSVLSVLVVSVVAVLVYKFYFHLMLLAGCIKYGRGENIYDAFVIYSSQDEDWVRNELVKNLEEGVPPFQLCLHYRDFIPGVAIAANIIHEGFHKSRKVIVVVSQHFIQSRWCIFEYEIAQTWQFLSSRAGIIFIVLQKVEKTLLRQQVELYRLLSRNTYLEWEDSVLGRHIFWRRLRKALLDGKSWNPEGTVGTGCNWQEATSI
T2 sequence (Q9Y6Y9 17-160 limits assumed): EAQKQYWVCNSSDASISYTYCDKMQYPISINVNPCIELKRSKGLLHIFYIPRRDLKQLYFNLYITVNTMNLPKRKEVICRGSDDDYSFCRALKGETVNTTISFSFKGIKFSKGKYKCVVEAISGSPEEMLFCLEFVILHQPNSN
Description: as §1, §2, §3

[1] = system: Raw-Blue™ and HEK-Blue™ lines; experiment: Assessment by sample of the inflammatory activities from the combined cell tests; format: cell-based; conditions: overall assessment, FIG. 11
Protocol: The objective of these tests is to determine the pro-inflammatory reactivity and the nature of the contaminants present in the glucose polymer matrices and the batch of glucose polymer hydrolysate.
The analyses are carried out on: • Raw-Blue™ line: any contaminants with high reactivity for PGNs, • HEK-Blue™ hTLR2 line: high reactivity for PGNs, • HEK-Blue™ hTLR4 line: high reactivity for LPSs, • HEK-Blue™ hNOD2 line: MDP and PGN depolymerization products, • HEK-Blue™ Null2 line: control for absence of cell toxicity.

hNOD2 receptor = target: T3, hNOD2 receptor (Homo sapiens, UniProt Q9HC29); experiment: HEK-Blue hNOD2 cell response test (SEAP reporter activity); format: cell-based; conditions: increasing concentrations of agonist
T3 construct: host or cells: HEK-Blue hNOD2 (HEK293-derived, SEAP reporter)
T3 sequence (Q9HC29 whole entry): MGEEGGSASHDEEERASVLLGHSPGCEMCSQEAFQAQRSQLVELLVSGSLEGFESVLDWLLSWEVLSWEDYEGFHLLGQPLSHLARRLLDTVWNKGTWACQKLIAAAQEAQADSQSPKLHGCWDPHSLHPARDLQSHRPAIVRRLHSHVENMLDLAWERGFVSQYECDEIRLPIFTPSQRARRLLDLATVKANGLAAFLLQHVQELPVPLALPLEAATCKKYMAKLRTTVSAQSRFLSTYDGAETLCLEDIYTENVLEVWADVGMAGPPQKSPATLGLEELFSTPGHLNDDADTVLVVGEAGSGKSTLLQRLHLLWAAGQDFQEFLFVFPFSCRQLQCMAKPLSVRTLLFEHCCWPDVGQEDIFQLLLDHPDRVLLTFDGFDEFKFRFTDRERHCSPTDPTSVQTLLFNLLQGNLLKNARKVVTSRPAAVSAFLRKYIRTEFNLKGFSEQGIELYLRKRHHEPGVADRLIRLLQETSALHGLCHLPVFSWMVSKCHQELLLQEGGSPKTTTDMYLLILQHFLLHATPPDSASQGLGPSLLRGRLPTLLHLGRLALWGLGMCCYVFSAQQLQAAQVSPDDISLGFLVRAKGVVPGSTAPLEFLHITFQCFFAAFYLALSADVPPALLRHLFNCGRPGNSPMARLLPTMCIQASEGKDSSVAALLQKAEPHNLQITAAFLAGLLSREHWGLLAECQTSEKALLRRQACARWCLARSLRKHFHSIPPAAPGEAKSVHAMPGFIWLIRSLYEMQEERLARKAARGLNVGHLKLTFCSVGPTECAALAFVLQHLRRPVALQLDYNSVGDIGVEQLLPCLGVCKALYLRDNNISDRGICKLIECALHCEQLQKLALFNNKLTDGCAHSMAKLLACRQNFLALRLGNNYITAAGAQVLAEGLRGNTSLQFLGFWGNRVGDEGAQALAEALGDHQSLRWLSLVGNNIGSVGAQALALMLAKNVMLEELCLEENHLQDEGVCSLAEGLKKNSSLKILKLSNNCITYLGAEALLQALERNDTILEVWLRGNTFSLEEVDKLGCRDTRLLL
Description: as §1, §2, §3

[2] = background statement; cited from earlier work
[3] = increasing concentrations of agonist, SEAP activity

T1 sequence (O60603 19-784 limits assumed): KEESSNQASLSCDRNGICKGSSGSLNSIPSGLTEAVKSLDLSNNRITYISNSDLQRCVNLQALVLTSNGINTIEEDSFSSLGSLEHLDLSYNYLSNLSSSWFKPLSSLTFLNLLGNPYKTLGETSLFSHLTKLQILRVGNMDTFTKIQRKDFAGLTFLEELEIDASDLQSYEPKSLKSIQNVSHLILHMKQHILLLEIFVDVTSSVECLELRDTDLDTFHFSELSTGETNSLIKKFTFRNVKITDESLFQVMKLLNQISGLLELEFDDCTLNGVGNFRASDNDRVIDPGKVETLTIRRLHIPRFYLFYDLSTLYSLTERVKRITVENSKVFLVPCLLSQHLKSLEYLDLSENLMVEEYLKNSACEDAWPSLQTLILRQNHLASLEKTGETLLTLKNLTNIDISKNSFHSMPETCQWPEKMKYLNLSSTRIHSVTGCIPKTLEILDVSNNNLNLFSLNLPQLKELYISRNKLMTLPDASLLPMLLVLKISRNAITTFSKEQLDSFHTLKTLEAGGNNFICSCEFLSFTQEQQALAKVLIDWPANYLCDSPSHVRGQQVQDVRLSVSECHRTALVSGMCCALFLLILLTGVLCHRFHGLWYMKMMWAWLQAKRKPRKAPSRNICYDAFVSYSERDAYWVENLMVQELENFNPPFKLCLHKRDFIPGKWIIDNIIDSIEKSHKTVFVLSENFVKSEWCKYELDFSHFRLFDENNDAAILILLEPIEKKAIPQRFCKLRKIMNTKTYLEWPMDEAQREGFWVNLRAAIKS

With `O.O=C[C@H](O)[C@@H](O)[C@H](O)[C@H](O)CO` [LYCADEX®, dextrose monohydrate] the “HEK-TLR2 cell response induced by matrix” value (hTLR2 receptor; nonfiltered sample, 3.2% (w/v), monohydrate) was “do not trigger responses; also recorded: only barely or not at all active”, the “Raw cell response induced by matrix” value (Raw-Blue™ line; nonfiltered sample, 3.2% (w/v)) was “trigger an inflammatory response” and the “HEK-TLR4 cell response induced by matrix” value (hTLR4 receptor; nonfiltered sample, 3.2% (w/v)) was “do not trigger a significant response”. For the same compound, the “Assessment of inflammatory activity by sample” value [1] was “low-strength inflammatory activity”.
For `CC(=O)N[C@H]1C(O)O[C@H](CO)[C@@H](O)[C@@H]1O[C@H](C)C(=O)N[C@@H](C)C(=O)N[C@H](CCC(=O)O)C(N)=O` (mixture of isomers) [MDP, muramyl dipeptide], the “HEK-Blue hTLR2 cell response to standard agonists” value (hTLR2 receptor; [3]) was “no reactivity”, the “Raw-Blue cell response to standard agonists” value (Raw-Blue™ line; [3]) was “do not respond” and the “HEK-Blue hTLR4 cell response to standard agonists” value (hTLR4 receptor; [3]) was “no reactivity”. For the same compound, the “HEK-Blue hNOD2 cell response to standard agonists” value (hNOD2 receptor) was “strong reactivity”.
For formyl-Met-Leu-Phe tripeptide [f-MLP], the “Induction of a cytokine response per se” value [2] is given as “incapable of inducing a cytokine response per se”.

— US20200400650A1, “METHODS FOR DECONTAMINATING CIRCUITS FOR PRODUCING GLUCOSE POLYMERS AND HYDROLYSATES OF GLUCOSE POLYMERS” (Roquette Freres, priority 2012, published 2020)
